Experimental data taken from patent US20230085307A1, “PYRIDAZINONE COMPOUND AND HERBICIDE” (NISSAN CHEMICAL CORPORATION, priority 2019, published 2023).

Key:
late watergrass = assay: Test Example 2: herbicidal activity, application during weed generation under submerged conditions (Table 17, symbol A); format: in vivo, late watergrass (Echinochloa oryzicola); conditions: AAH 320 g/ha; application during weed generation, submerged conditions
How it was run: (§1)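 Effect on each weed is rated three weeks post-treatment, using the same scoring criteria as the preceding test. Plants grow from mixed-sown seed in flooded alluvial soil (4 cm water) at 25° C. to 30° C., and are treated at one to two leaves with diluted emulsion dropped onto the water.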

Japanese bulrush = assay: Test Example 2: herbicidal activity, application during weed generation under submerged conditions (Table 17, symbol B); format: in vivo, Japanese bulrush (Schoenoplectus juncoides); conditions: AAH 320 g/ha; application during weed generation, submerged conditions
How it was run: as §1

oval-leafed pondweed = assay: Test Example 2: herbicidal activity, application during weed generation under submerged conditions (Table 17, symbol C); format: in vivo, oval-leafed pondweed (Monochoria vaginalis); conditions: AAH 320 g/ha; application during weed generation, submerged conditions
How it was run: as §1

barnyard grass [1] = assay: Test Example 3: herbicidal effect by foliage application, Wagner pot (Table 18, symbol H); format: in vivo, barnyard grass (Echinochloa crus-galli); conditions: 320 g/ha
How it was run: (§2)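 Plants were sown in alluvial soil held under 0.1–0.5 cm standing water and grown 14 days in a greenhouse at 25–30 °C. An emulsifiable formulation, water-diluted to the set dose, was then sprayed onto the foliage, and effects were scored three weeks later using previously defined criteria.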

Chinese sprangletop = assay: Test Example 3: herbicidal effect by foliage application, Wagner pot (Table 18, symbol D); format: in vivo, chinese sprangletop (Leptochloa chinensis); conditions: 320 g/ha
How it was run: as §2

rice flat sedge = assay: Test Example 3: herbicidal effect by foliage application, Wagner pot (Table 18, symbol E); format: in vivo, rice flat sedge (Cyperus iria); conditions: 320 g/ha
How it was run: as §2

southern crabgrass [2] = assay: Test Example 4: herbicidal effect by soil treatment (Table 19, symbol F); format: in vivo, southern crabgrass (Digitaria ciliaris); conditions: amount of applied herbicide 320 g/ha
How it was run: (§3)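 Step 1: sow seeds in sterilized diluvial soil, cover ~1.5 cm. Step 2: spray diluted emulsion onto soil surface at predetermined rate. Step 3: greenhouse, 25–30° C, three weeks. Step 4: grade effect on each plant by earlier criteria.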

green foxtail [3] = assay: Test Example 4: herbicidal effect by soil treatment (Table 19, symbol G); format: in vivo, green foxtail (Setaria viridis); conditions: amount of applied herbicide 320 g/ha
How it was run: as §3

barnyard grass [4] = assay: Test Example 4: herbicidal effect by soil treatment (Table 19, symbol H); format: in vivo, barnyard grass (Echinochloa crus-galli); conditions: amount of applied herbicide 320 g/ha
How it was run: as §3

wild oat [5] = assay: Test Example 4: herbicidal effect by soil treatment (Table 19, symbol I); format: in vivo, wild oat (Avena fatua); conditions: amount of applied herbicide 320 g/ha
How it was run: as §3

blackgrass [6] = assay: Test Example 4: herbicidal effect by soil treatment (Table 19, symbol J); format: in vivo, blackgrass (Alopecurus myosuroides); conditions: amount of applied herbicide 320 g/ha
How it was run: as §3

Italian ryegrass [7] = assay: Test Example 4: herbicidal effect by soil treatment (Table 19, symbol K); format: in vivo, Italian ryegrass (Lolium multiflorum); conditions: amount of applied herbicide 320 g/ha
How it was run: as §3

windgrass [8] = assay: Test Example 4: herbicidal effect by soil treatment (Table 19, symbol L); format: in vivo, windgrass (Apera spica-venti); conditions: amount of applied herbicide 320 g/ha
How it was run: as §3

velvetleaf [9] = assay: Test Example 4: herbicidal effect by soil treatment (Table 19, symbol M); format: in vivo, velvetleaf (Abutilon theophrasti); conditions: amount of applied herbicide 320 g/ha
How it was run: as §3

redroot pigweed [10] = assay: Test Example 4: herbicidal effect by soil treatment (Table 19, symbol N); format: in vivo, redroot pigweed (Amaranthus retroflexus); conditions: amount of applied herbicide 320 g/ha
How it was run: as §3

lambsquarters [11] = assay: Test Example 4: herbicidal effect by soil treatment (Table 19, symbol O); format: in vivo, lambsquarters (Chenopodium album); conditions: amount of applied herbicide 320 g/ha
How it was run: as §3

chickweed [12] = assay: Test Example 4: herbicidal effect by soil treatment (Table 19, symbol P); format: in vivo, common chickweed (Stellaria media); conditions: amount of applied herbicide 320 g/ha
How it was run: as §3

persian speedwell [13] = assay: Test Example 4: herbicidal effect by soil treatment (Table 19, symbol R); format: in vivo, Persian speedwell (Veronica persica); conditions: amount of applied herbicide 320 g/ha
How it was run: as §3

southern crabgrass [14] = assay: Test Example 5: herbicidal effect by foliage application, plastic box (Table 20, symbol F); format: in vivo, southern crabgrass (Digitaria ciliaris); conditions: 320 g/ha, foliage application after 14-day growth, evaluated three weeks after application
How it was run: (§4)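 Foliar spray test: emulsion formulation diluted in water to a set application rate, sprayed onto 14-day-old plants raised in diluvial soil at 25° C to 30° C under glass. Both herbicidal effect and crop effect rated visually three weeks later.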

green foxtail [15] = assay: Test Example 5: herbicidal effect by foliage application, plastic box (Table 20, symbol G); format: in vivo, green foxtail (Setaria viridis); conditions: 320 g/ha, foliage application after 14-day growth, evaluated three weeks after application
How it was run: as §4

barnyard grass [16] = assay: Test Example 5: herbicidal effect by foliage application, plastic box (Table 20, symbol H); format: in vivo, barnyard grass (Echinochloa crus-galli); conditions: 320 g/ha, foliage application after 14-day growth, evaluated three weeks after application
How it was run: as §4

wild oat [17] = assay: Test Example 5: herbicidal effect by foliage application, plastic box (Table 20, symbol I); format: in vivo, wild oat (Avena fatua); conditions: 320 g/ha, foliage application after 14-day growth, evaluated three weeks after application
How it was run: as §4

blackgrass [18] = assay: Test Example 5: herbicidal effect by foliage application, plastic box (Table 20, symbol J); format: in vivo, blackgrass (Alopecurus myosuroides); conditions: 320 g/ha, foliage application after 14-day growth, evaluated three weeks after application
How it was run: as §4

Italian ryegrass [19] = assay: Test Example 5: herbicidal effect by foliage application, plastic box (Table 20, symbol K); format: in vivo, Italian ryegrass (Lolium multiflorum); conditions: 320 g/ha, foliage application after 14-day growth, evaluated three weeks after application
How it was run: as §4

windgrass [20] = assay: Test Example 5: herbicidal effect by foliage application, plastic box (Table 20, symbol L); format: in vivo, windgrass (Apera spica-venti); conditions: 320 g/ha, foliage application after 14-day growth, evaluated three weeks after application
How it was run: as §4

velvetleaf [21] = assay: Test Example 5: herbicidal effect by foliage application, plastic box (Table 20, symbol M); format: in vivo, velvetleaf (Abutilon theophrasti); conditions: 320 g/ha, foliage application after 14-day growth, evaluated three weeks after application
How it was run: as §4

redroot pigweed [22] = assay: Test Example 5: herbicidal effect by foliage application, plastic box (Table 20, symbol N); format: in vivo, redroot pigweed (Amaranthus retroflexus); conditions: 320 g/ha, foliage application after 14-day growth, evaluated three weeks after application
How it was run: as §4

lambsquarters [23] = assay: Test Example 5: herbicidal effect by foliage application, plastic box (Table 20, symbol O); format: in vivo, lambsquarters (Chenopodium album); conditions: 320 g/ha, foliage application after 14-day growth, evaluated three weeks after application
How it was run: as §4

chickweed [24] = assay: Test Example 5: herbicidal effect by foliage application, plastic box (Table 20, symbol P); format: in vivo, common chickweed (Stellaria media); conditions: 320 g/ha, foliage application after 14-day growth, evaluated three weeks after application
How it was run: as §4

persian speedwell [25] = assay: Test Example 5: herbicidal effect by foliage application, plastic box (Table 20, symbol R); format: in vivo, Persian speedwell (Veronica persica); conditions: 320 g/ha, foliage application after 14-day growth, evaluated three weeks after application
How it was run: as §4

CCCC(=O)Oc1c(C)nn(C)c(=O)c1-c1c(-c2ccc(C(F)(F)F)cc2)sc2c(Cl)cccc12 [4-030]
herbicidal effect rating, A: late watergrass (late watergrass): 3 (Herbicidal rate of 40% or more and less than 70%) | herbicidal effect rating, B: Japanese bulrush (Japanese bulrush): 3 (Herbicidal rate of 40% or more and less than 70%) | herbicidal effect rating, C: oval-leafed pondweed (oval-leafed pondweed): 3 (Herbicidal rate of 40% or more and less than 70%) | herbicidal effect on barnyard grass (H) (barnyard grass [1]): 3 (Herbicidal rate of 40% or more and less than 70%) | herbicidal effect on Chinese sprangletop (D) (Chinese sprangletop): 5 (Herbicidal rate of 90% or more (almost completely withered)) | herbicidal effect on rice flat sedge (E) (rice flat sedge): 3 (Herbicidal rate of 40% or more and less than 70%) | Herbicidal effect by soil treatment, F: southern crabgrass (southern crabgrass [2]): 0 (Herbicidal rate of 5% or less (almost no effect)) | Herbicidal effect by soil treatment, G: green foxtail (green foxtail [3]): 0 (Herbicidal rate of 5% or less (almost no effect)) | Herbicidal effect by soil treatment, H: barnyard grass (barnyard grass [4]): 0 (Herbicidal rate of 5% or less (almost no effect)) | Herbicidal effect by soil treatment, I: wild oat (wild oat [5]): 0 (Herbicidal rate of 5% or less (almost no effect)) | Herbicidal effect by soil treatment, J: blackgrass (blackgrass [6]): 0 (Herbicidal rate of 5% or less (almost no effect)) | Herbicidal effect by soil treatment, K: Italian ryegrass (Italian ryegrass [7]): 0 (Herbicidal rate of 5% or less (almost no effect)) | Herbicidal effect by soil treatment, L: windgrass (windgrass [8]): 0 (Herbicidal rate of 5% or less (almost no effect)) | Herbicidal effect by soil treatment, M: velvetleaf (velvetleaf [9]): 0 (Herbicidal rate of 5% or less (almost no effect)) | Herbicidal effect by soil treatment, N: redroot pigweed (redroot pigweed [10]): 0 (Herbicidal rate of 5% or less (almost no effect)) | Herbicidal effect by soil treatment, O: lambsquarters (lambsquarters [11]): 0 (Herbicidal rate of 5% or less (almost no effect)) | Herbicidal effect by soil treatment, P: chickweed (chickweed [12]): 3 (Herbicidal rate of 40% or more and less than 70%) | Herbicidal effect by soil treatment, R: persian speedwell (persian speedwell [13]): 0 (Herbicidal rate of 5% or less (almost no effect)) | herbicidal effect on F: southern crabgrass (evaluation grade 0-5) (southern crabgrass [14]): 0 (Herbicidal rate of 5% or less (almost no effect)) | herbicidal effect on G: green foxtail (evaluation grade 0-5) (green foxtail [15]): 0 (Herbicidal rate of 5% or less (almost no effect)) | herbicidal effect on H: barnyard grass (evaluation grade 0-5) (barnyard grass [16]): 0 (Herbicidal rate of 5% or less (almost no effect)) | herbicidal effect on I: wild oat (evaluation grade 0-5) (wild oat [17]): 3 (Herbicidal rate of 40% or more and less than 70%) | herbicidal effect on J: blackgrass (evaluation grade 0-5) (blackgrass [18]): 0 (Herbicidal rate of 5% or less (almost no effect)) | herbicidal effect on K: Italian ryegrass (evaluation grade 0-5) (Italian ryegrass [19]): 0 (Herbicidal rate of 5% or less (almost no effect)) | herbicidal effect on L: windgrass (evaluation grade 0-5) (windgrass [20]): 5 (Herbicidal rate of 90% or more (almost completely withered)) | herbicidal effect on M: velvetleaf (evaluation grade 0-5) (velvetleaf [21]): 0 (Herbicidal rate of 5% or less (almost no effect)) | herbicidal effect on N: redroot pigweed (evaluation grade 0-5) (redroot pigweed [22]): 0 (Herbicidal rate of 5% or less (almost no effect)) | herbicidal effect on O: lambsquarters (evaluation grade 0-5) (lambsquarters [23]): 0 (Herbicidal rate of 5% or less (almost no effect)) | herbicidal effect on P: chickweed (evaluation grade 0-5) (chickweed [24]): 5 (Herbicidal rate of 90% or more (almost completely withered)) | herbicidal effect on R: persian speedwell (evaluation grade 0-5) (persian speedwell [25]): 5 (Herbicidal rate of 90% or more (almost completely withered))
